Measurements from patent US10898548B2, “Modulators of protein tyrosine phosphatase and uses thereof” (LEUVAS THERAPEUTICS, priority 2015, dated 2021).
Marks after values point to notes of the source that are not given here.

Experiments:
human primary monocytes = assay: underflow adhesion of monocytes on E-selectin/ICAM-1 (BioFlux); assay type: cell-based; details: for arrest 1 sec, flow assay / arrest 10 sec, flow assay / rolling cells, flow assay: Table 3, concentration not given; for arrest 1 sec, flow assay: CTRL 24; for rolling cells, flow assay: CTRL 50
Protocol: Flow-adhesion assays were also performed to test the ability of the P1-WD peptide to inhibit adhesion of human monocytes under flow conditions. Briefly, Human primary monocytes were suspended at 1×10^6/ml in standard adhesion. Cell behavior in underflow conditions was analyzed with the BioFlux 200 system (Fluxion Biosciences). 48-well plate microfluidics were first co-coated overnight at room temperature with 2.5 μg/ml human E-selectin and 5 μg/ml human ICAM-1 in PBS. Immediately before use, microfluidic channels were washed with PBS and then coated with 10 nM fMLP in PBS for 3 h at room temperature. After extensive washing of microfluidics with adhesion buffer, cells were fluxed at 2 dyne/cm^2 wall shear stress and the behavior of interacting cells was digitally recorded with a fast CCD videocamera (25 frames/s). Single areas of 0.2 mm^2 were recorded for at least 120 s. Interactions of 40 ms or longer were considered significant and scored. Cells that remained firmly adherent for at least 1 s were considered fully arrested. Cells arrested for at least 1 s and then detached, or for 10 s and then remained adherent, were scored separately and plotted as independent groups. Interacting cells behaviors were automatically quantified with BeQuanti.
Briefly, human monocytes were treated with buffer (CTRL), 50 μM TAT peptides, or 0.5 μM TAT-ICD for 1 hour at 37° C. Data are percentages of rolling and arrested cells for the indicated times over total interacting cells; mean values of 4 experiments.
Briefly, Human monocytes were treated with buffer (CTRL=control), 100 μM AG490, 40 μM P1 or P1-TKIP peptides or 200 μM WHI-P154 for 1 hour at 37° C. Shown are percentages of rolling and arrested cells for the indicated times over total interacting cells; mean values of 5 experiments; errors bars are SDs.

JAK2 = target: T1, JAK2 (Homo sapiens, UniProt O60674); assay: phospho-JAK2 Western Blot on monocytes; assay type: cell-based; details: 50 nM fMLP 180 sec
T1 construct: endogenous in cells; host or cells: human primary monocytes
Excerpt: JAK2 regulation by PTPRG as assessed through the high-throughput phospho-proteomics analysis evidenced that PTPRG activation (Example 4, Table 9 and 10) provides a useful example of the exploitation of this analysis system for identification of targets and unexpected indications/uses for known and novel agents that regulate the phoshoproteome. […] Furthermore, the capability of fMLP to trigger JAKs activation has never been observed. The results described in Example 4 unexpectedly implicate JAK2 de-phosphorylation by PTPRG as playing a role in the anti-adhesive role of PTPRG on monocytes. To test this system-generated hypothesis we first set out to define the role of JAK2 in fMLP-triggered rapid adhesion in monocytes. Time course experiments, either performed with ELISA assay or Western Blot. Briefly, purified human monocytes were treated with buffer (resting) or with 50 nM fMLP for the indicated times (Table 12), and the phosphorylation was assessed by p-Jak2 elisa and Western Blot analysis. The JAK2 activation was determined with Elisa Kit JAK2 (pYpY1007/1008) (Invitrogen). Briefly, cells were stimulated with agonist and lysed following manufacturer's protocol; levels of phospho-JAK2 were quantified (absorbance at 450 nm) with a micro-well plate reader (Victor™ X5 Multilabel Plate Reader, Perkin Elmer). For Western blot analysis, cells were lysed in ice-cold 1% Nonidet P-40 buffer, containing phosphatase inhibitors and complete protease inhibitor cocktail (Roche). Total cell lysates were quantified by Bradford assay (Bio-Rad). Equal amounts of total lysates or of isolated membranes (as described in Example 1) were subjected to 10% SDS-PAGE and then blotted. After incubation with anti-PTPRG, anti gp91^Phox, anti phospho-JAK2, anti JAK2 and HRP-linked secondary antibodies (GE Healthcare), immunoreactive bands were visualized by ECL detection (EMD Millipore). Intensities of band signals were quantified by densitometric analysis (Quantity One, Bio-Rad) by using ImageQuant Las4000. Data are mean value of three experiments; the relative ratio of the band intensity of phosphor-JAK2 was normalized to the level of JAK2 band intensities.
To evaluate whether JAK2 mediates fMLP-triggered rapid adhesion in human monocytes, we tested the capability of three JAK inhibitors, AG490, WHI-P154 and P1-TKIP peptide, to block adhesion triggering. Briefly, Monocytes were treated with buffer (resting and Control=CTRL), 100 μM AG490, 40 μM P1 or P1-TKIP peptides, or 200 μM WHI-P154 for 1 hour at 37° C. and stimulated with 50 nM fMLP for 180 sec. Cell lysates were probed with anti phospho-JAK2 and with anti JAK2. Western Blot immuoreactive band quantification; the relative ratio of the band intensity of phospho-JAK2 was normalized to the level of JAK2 band intensities; mean values of three experiments (Table 13).
The impact of TAT-ICD and P1-WD on JAK2 activation by chemoattractants was also evaluated by Western Blot analysis. Briefly, monocytes were treated with buffer (Resting, CTRL), 0.5 uM TAT-ICD, 50 μM TAT peptide, 50 μM P1-WD, P1 or P1-WD scrambled peptides for 1 hour at 37° C. and stimulated with 50 nM fMLP for 180 sec (the resting cells were not stimulated with fMLP). Total lysates were probed with anti phospho-JAK2 or with anti JAK. Western Blot immunoreactive bands were quantified and the relative ratio of the band intensity of phospho-JAK2 was normalized to the level of JAK2 band intensities; data are mean value and standard deviation of three experiments (Table 19).

[1] = 100 μM AG490, 40 μM P1 or P1-TKIP, 200 μM WHI-P154, 1 hour, CTRL 26
[2] = 100 μM AG490, 40 μM P1 or P1-TKIP, 200 μM WHI-P154, 1 hour, CTRL 34
[3] = 100 μM AG490, 40 μM P1 or P1-TKIP, 200 μM WHI-P154, 1 hour, CTRL 40
[4] = 100 μM AG490, 40 μM P1 or P1-TKIP, 200 μM WHI-P154, 1 hour, CTRL 207.7, Resting 18.8
[5] = 0.5 uM TAT-ICD, 50 μM TAT, 50 μM P1-WD, P1 or P1-WD scrambled, 1 hour, CTRL 50, Resting 8
[6] = 50 μM TAT peptides or 0.5 μM TAT-ICD, 1 hour at 37° C., CTRL 12
[7] = 50 μM TAT peptides or 0.5 μM TAT-ICD, 1 hour at 37° C., CTRL 22
[8] = 50 μM TAT peptides or 0.5 μM TAT-ICD, 1 hour at 37° C., CTRL 66

T1 sequence (O60674 whole entry): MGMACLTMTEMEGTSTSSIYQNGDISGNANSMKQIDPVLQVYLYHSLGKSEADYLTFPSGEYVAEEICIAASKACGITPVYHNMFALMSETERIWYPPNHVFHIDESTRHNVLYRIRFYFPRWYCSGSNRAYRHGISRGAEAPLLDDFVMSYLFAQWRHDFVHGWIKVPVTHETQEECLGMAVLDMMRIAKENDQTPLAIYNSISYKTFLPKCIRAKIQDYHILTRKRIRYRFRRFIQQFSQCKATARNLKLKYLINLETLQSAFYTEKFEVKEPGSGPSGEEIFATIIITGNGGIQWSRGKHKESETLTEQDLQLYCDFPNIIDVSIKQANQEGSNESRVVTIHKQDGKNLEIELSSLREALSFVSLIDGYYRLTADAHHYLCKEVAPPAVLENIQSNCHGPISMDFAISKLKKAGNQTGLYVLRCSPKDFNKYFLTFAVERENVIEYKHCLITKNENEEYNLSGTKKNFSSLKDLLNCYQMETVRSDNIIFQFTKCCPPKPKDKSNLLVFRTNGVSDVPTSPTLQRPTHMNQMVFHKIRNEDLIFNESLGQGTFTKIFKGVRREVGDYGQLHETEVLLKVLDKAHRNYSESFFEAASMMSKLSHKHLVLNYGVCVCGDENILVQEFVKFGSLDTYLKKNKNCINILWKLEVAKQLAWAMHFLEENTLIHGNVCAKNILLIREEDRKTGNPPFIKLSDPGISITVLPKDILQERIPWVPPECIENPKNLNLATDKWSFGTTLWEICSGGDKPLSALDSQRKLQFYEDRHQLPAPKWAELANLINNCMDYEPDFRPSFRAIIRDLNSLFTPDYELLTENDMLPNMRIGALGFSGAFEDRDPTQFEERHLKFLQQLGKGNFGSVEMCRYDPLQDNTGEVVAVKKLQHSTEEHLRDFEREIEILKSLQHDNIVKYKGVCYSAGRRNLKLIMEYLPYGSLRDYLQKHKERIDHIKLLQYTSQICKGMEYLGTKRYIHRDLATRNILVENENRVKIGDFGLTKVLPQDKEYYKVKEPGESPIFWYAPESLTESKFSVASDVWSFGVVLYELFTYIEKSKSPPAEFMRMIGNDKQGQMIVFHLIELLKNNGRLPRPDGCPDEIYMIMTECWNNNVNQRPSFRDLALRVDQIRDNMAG

Molecule | cells arrested 10 sec over total interacting cells, flow assay (human primary monocytes; [1]) [%] | cells arrested 1 sec over total interacting cells, flow assay (human primary monocytes; [2]) [%] | rolling cells over total interacting cells, flow assay (human primary monocytes; [3]) [%] | phospho-JAK2 band intensity normalized to JAK2, Western Blot (JAK2; [4]) | arrest 1 sec, flow assay (human primary monocytes) | arrest 10 sec, flow assay (human primary monocytes; CTRL 26) | rolling cells, flow assay (human primary monocytes) | phospho-JAK2 band intensity normalized to JAK2, Western Blot (JAK2; [5]) | rolling cells over total interacting cells, flow assay (human primary monocytes; [6]) [%] | cells arrested 1 sec over total interacting cells, flow assay (human primary monocytes; [7]) [%] | cells arrested 10 sec over total interacting cells, flow assay (human primary monocytes; [8]) [%]
N#C/C(=C/c1ccc(O)c(O)c1)C(=O)NCc1ccccc1 [AG490] | 10 | 20 | 70 | 9.2 | – | – | – | – | – | – | –
COc1cc2ncnc(Nc3ccc(O)c(Br)c3)c2cc1OC [WHI-P154] | 14 | 20 | 66 | 4.9 | – | – | – | – | – | – | –
P1-WD: fusion Trojan peptide SEQ ID 3: Penetratin, glycine, PTPRG wedge domain aa 831-856; RQIKIWFQNRRMKWKKGKQFVKHIGELYSNNQHGFSEDFEEVQ (listed as Homo sapiens) | – | – | – | – | 9 | 11 | 80 | 12* | – | – | –
P1: Penetratin delivery peptide, 16 aa RQIKIWFQNRRMKWKK (SEQ ID 4), control [reference compound] | 30 | 26 | 44 | 111.4 | 32 | 30 | 38 | 49 | – | – | –
TAT (GRKKRRQRRRPPQ; listed as Homo sapiens) [reference compound] | – | – | – | – | – | – | – | 40 | 14 | 25 | 61
TAT-ICD: fusion recombinant protein SEQ ID 5: PTPRG intracellular domain aa 797-1445 fused to 13 aa TAT sequence | – | – | – | – | – | – | – | 15* | 79 | 10 | 11
